In US12448369B2 (Edgewise Therapeutics, Inc., priority 2023, dated 2025):

How the values were obtained:
[1] = test system: Porcine atria myofibrils (atrial myosin ATPase); test: Myofibril ATPase assay, porcine atria myofibrils; type: biochemical
Procedure, shortened: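 Atrial myofibril ATPase measured by NADH-coupled absorbance at 340 nm; vehicle-normalized slopes fitted to give Y75 or Y125 values.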

[2] = test system: Rabbit Psoas myofibrils (skeletal myosin ATPase); test: Myofibril ATPase assay, rabbit psoas (skeletal) myofibrils; type: biochemical
Procedure, shortened: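 Values derive from concentration–response fits of NADH consumption rates at 340 nm, normalized to vehicle-only wells, as Y75 or Y125. Myofibril ATP turnover was linked to NADH via PK/LDH in Ca/EGTA-buffered PIPES, pH 7.0, and read over 75 min.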

[3] = target: T1, Porcine ventricle myofibrils (ventricular myosin ATPase) (Sus scrofa, UniProt P79293); test: Myofibril ATPase assay, porcine ventricle myofibrils; type: biochemical, porcine (Yucatan minipigs)
T1 construct: Myofibrils from porcine cardiac muscle was isolated from the left ventricle of Yucatan minipigs; tissue Exemplar Genetics; host or cells: left ventricle of Yucatan minipigs, myofibrils prepared in house
Procedure, shortened: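 ATPase activity of porcine left-ventricular myofibrils is tracked as the slope of NADH loss at 340 nm through a PK/LDH couple. Values are the concentrations that bring activity to 75% (inhibitors) or 125% (activators) of vehicle.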

[4] = Y75 value (no ‡ mark), porcine atria myofibrils
[5] = Y75 value (no ‡ mark), rabbit psoas myofibrils
[6] = Y75 value (no ‡ mark), porcine ventricle myofibrils
[7] = porcine atria myofibrils, Y75 value (75% activity relative to no compound)
[8] = rabbit psoas myofibrils, Y75 value
[9] = porcine ventricle myofibrils, Y75 value
[10] = ‡ Y125 value, not a Y75 value (125% activity relative to no compound), porcine ventricle myofibrils

T1 sequence (P79293 whole entry): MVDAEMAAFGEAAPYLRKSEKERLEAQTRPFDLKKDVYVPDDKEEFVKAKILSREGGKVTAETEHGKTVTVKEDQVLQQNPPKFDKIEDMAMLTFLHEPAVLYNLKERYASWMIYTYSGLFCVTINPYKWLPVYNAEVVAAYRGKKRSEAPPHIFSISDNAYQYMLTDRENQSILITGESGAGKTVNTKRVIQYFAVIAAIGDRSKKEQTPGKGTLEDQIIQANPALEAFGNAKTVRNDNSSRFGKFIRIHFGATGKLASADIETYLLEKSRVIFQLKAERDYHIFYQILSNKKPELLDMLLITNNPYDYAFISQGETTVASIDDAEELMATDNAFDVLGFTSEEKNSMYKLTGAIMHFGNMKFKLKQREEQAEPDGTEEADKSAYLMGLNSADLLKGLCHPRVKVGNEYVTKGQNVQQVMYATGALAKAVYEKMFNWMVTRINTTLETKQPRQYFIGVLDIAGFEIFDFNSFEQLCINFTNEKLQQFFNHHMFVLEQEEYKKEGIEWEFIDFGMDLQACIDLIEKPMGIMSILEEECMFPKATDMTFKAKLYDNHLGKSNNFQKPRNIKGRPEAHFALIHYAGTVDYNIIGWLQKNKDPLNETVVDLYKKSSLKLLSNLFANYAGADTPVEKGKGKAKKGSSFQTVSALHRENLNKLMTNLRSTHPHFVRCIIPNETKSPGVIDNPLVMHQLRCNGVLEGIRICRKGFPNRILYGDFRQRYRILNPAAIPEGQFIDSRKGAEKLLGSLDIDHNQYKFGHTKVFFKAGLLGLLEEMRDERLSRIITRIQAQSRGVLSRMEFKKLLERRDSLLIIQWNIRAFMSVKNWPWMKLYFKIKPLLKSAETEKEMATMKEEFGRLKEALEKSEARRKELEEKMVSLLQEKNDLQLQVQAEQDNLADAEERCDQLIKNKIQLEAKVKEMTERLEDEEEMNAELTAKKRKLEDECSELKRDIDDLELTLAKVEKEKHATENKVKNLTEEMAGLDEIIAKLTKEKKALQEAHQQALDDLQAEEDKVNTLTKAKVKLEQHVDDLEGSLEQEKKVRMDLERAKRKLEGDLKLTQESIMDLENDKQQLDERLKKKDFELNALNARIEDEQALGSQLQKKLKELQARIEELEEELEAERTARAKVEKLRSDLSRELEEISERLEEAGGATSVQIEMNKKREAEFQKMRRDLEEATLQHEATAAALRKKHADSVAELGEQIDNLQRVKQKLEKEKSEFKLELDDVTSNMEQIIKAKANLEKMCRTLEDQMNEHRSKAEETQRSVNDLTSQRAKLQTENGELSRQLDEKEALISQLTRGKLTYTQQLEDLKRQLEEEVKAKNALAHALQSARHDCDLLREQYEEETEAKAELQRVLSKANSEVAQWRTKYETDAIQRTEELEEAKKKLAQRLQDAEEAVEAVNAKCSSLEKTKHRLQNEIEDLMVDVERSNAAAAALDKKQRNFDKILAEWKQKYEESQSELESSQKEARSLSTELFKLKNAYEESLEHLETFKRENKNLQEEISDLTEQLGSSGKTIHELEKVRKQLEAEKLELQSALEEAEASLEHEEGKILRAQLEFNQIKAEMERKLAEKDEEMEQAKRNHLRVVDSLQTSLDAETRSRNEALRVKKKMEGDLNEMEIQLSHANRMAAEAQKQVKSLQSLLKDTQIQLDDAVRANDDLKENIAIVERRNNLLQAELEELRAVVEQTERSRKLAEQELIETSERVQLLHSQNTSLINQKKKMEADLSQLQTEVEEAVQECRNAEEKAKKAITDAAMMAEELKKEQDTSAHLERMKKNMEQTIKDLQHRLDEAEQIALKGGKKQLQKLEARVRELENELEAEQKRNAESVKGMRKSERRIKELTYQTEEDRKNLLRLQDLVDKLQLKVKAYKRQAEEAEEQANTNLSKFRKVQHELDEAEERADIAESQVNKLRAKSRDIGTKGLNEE

Compound | Atrial EC25 [1, 4] [µM] | Skeletal EC25 [2, 5] [µM] | Ventricular EC25 [3, 6] [µM] | Atrial EC25 [1, 7] [µM] | Skeletal EC25 [2, 8] [µM] | Ventricular EC25 [3, 9] [µM] | other results
Cc1c(C(F)(F)C(=O)N[C@@H](C)c2nc(C#N)cs2)c(=O)[nH]c2ccc(F)cc12 (single isomer, unassigned) [Compound 4010] |  |  |  |  |  |  | Atrial EC25 ([1]; Y75 value: concentration required to reduce myosin ATP-ase activity by 25%, Porcine Atria Prep pCa 25 GEOM_MEAN): 0.74 µM; Skeletal EC25 ([2]; Y75 value: concentration required to reduce myosin ATP-ase activity by 25%, Rabbit Psoas Prep pCa 25 GEOM_MEAN): 2.38 µM; Ventricular EC25 ([3]; Y75 value: concentration required to reduce myosin ATP-ase activity by 25%, Porcine Ventricle Prep pCa 25 GEOM_MEAN): 19.76 µM
Cc1c(C(F)(F)C(=O)N[C@@H](C)c2ncc(C#N)cn2)c(=O)[nH]c2ccc(F)cc12 (single isomer, unassigned) [compound 2595] | 0.36 | 0.17 | 0.45 |  |  |  | 
Cc1c([C@@H](C)C(=O)N[C@@H](C)c2ncc(C#N)cc2F)c(=O)[nH]c2ccc(F)c(F)c12 (relative stereo) [compound 2602, rel-(2R*)-N-[(1S)-1-(5-cyano-3-fluoropyridin-2-yl)ethyl]-2-(5,6-difluoro-4-methyl-2-oxo-1H-quinolin-3-yl) propanamide] | 0.05 | 0.02 | 0.08 |  |  |  | 
Cc1nccc2[nH]c(=O)c(CC(=O)N[C@H]3COc4cc(C#N)cc(F)c43)c(C)c12 (single isomer, unassigned) [compound 178] |  |  |  | 4.55 | 1.84 | 20.24 | 
Cc1nncc2[nH]c(=O)c(CC(=O)N[C@@H](C)c3ncc(C#N)cc3F)cc12 [compound 452] |  |  |  | 63.47 | 100.00 | 100.00 | 
Cc1c(C2(C(=O)N[C@@H](C)c3ncc(C#N)cn3)CC2)c(=O)[nH]c2cccc(C#N)c12 (single isomer, unassigned) [compound 2544] | 4.48 | 2.27 | 18.26 |  |  |  | 
Cc1c(CC(=O)N[C@@H](C)c2ncc(C#N)cn2)c(=O)[nH]c2ccc(F)c(C#N)c12 (single isomer, unassigned) [compound 2016] | 0.12 | 0.05 | 0.29 |  |  |  | 
Cc1c(C2(C(=O)N[C@@H](C)c3nccc(C#N)n3)CC2)c(=O)[nH]c2ccc(F)c(F)c12 (single isomer, unassigned) [compound 2510] | 7.78 |  |  |  |  |  | Skeletal EC25 ([2]; ‡ Y125 value, not a Y75 value (125% activity relative to no compound), rabbit psoas myofibrils): 85.63‡ μM; Ventricular EC25 [3, 10]: 77.57‡ μM
C[C@@H](NC(=O)Cc1cc2c(F)c(F)ccc2[nH]c1=O)c1ccc(C#N)cn1 [compound 17] | 0.09 | 0.43 | 1.56 |  |  |  | 
Cc1nccc2[nH]c(=O)c(C(F)(F)C(=O)N[C@@H](C)c3ccc(F)cc3F)c(C)c12 [compound 405] |  |  |  | 0.15 | 0.04 | 1.12 | 
Cc1nc(C#N)cnc1[C@H](C)NC(=O)Cc1c(C)c2c(C)nccc2[nH]c1=O [compound 492] |  |  |  | 0.08 | 0.28 | 0.32 | 
Cc1cccc2[nH]c(=O)c(CC(=O)N[C@@H](C)c3ccc(C#N)cn3)c(C#N)c12 [compound 1111] | 0.49 | 0.26 | 2.28 |  |  |  | 
Cc1nccc2[nH]c(=O)c(CC(=O)N[C@@H]3COc4cc(C#N)cc(F)c43)c(C)c12 (single isomer, unassigned) [compound 177] |  |  |  | 0.06 | 0.02 | 0.09 | 
C[C@@H](NC(=O)Cc1c(C2CC2)c2cc(F)ccc2[nH]c1=O)c1ccc(C#N)cn1 [compound 55] | 1.29 | 1.20 | 100.00 |  |  |  | 
Cc1cc([C@H](C)NC(=O)Cc2c(C)c3c(C)c(F)ccc3[nH]c2=O)ncc1F (single isomer, unassigned) [compound 2077] | 1.50 | 0.29 | 100.00 |  |  |  | 
C[C@@H](NC(=O)Cc1c(C#N)c2cc(F)ccc2[nH]c1=O)c1ncc(C#N)cc1F [compound 1094] | 100.00 | 2.26 | 100.00 |  |  |  | 
C[C@H](NC(=O)[C@@H](C)c1cc2cc(F)ccc2[nH]c1=O)c1ccc(F)cc1F (single isomer, unassigned) [compound 2608] | 100.00 | 100.00 |  |  |  |  | Ventricular EC25 [3, 10]: 44.26‡ μM
Cc1c(F)ccc2[nH]c(=O)c(CC(=O)N[C@H](C)c3ccc(C#N)cc3F)c(O)c12 [compound 19] | 100.00 | 2.92 | 1.01 |  |  |  | 

Compound | Atrial EC25 [1, 4] [µM] | Skeletal EC25 [2, 5] [µM] | Ventricular EC25 [3, 6] [µM] | Atrial EC25 [1, 7] [µM] | Skeletal EC25 [2, 8] [µM] | Ventricular EC25 [3, 9] [µM] | other results
Cc1c(C2(C(=O)N[C@@H](C)c3ncc(C#N)cn3)CC2)c(=O)[nH]c2ccc(F)cc12 (single isomer, unassigned) [compound 2591] | 1.52 | 100.00 | 18.78 |  |  |  | 
Cc1c([C@@H](C)C(=O)N[C@@H](C)c2ccc(C#N)cc2F)c(=O)[nH]c2ccnc(C#N)c12 (single isomer, unassigned) [compound 173] |  |  |  | 0.22 | 0.02 | 0.30 | 
Cc1nc(C#N)ncc1[C@H](C)NC(=O)Cc1c(C)c2c(F)c(F)ccc2[nH]c1=O [compound 1132] | 0.10 | 0.02 | 0.05 |  |  |  | 
Cc1nccc2[nH]c(=O)c(C(F)(F)C(=O)N[C@H](C)c3ccc(C#N)cc3F)c(C)c12 (single isomer, unassigned) [compound 3511] |  |  |  | 0.56 | 0.26 | 2.65 | 
Cc1c(CC(=O)N[C@@H](CO)c2ncc(C#N)cc2F)c(=O)[nH]c2cnnc(C#N)c12 [compound 164] |  |  |  | 2.51 | 1.12 | 22.06 | 
Cc1nccc2[nH]c(=O)c(C(F)(F)C(=O)N[C@@H](C)c3ccc(C#N)cc3F)c(C)c12 (single isomer, unassigned) [compound 3508] |  |  |  | 0.22 | 0.07 | 0.29 | 
Cc1c(CC(=O)NC(C)c2cnc(C#N)cn2)c(=O)[nH]c2ccc(F)c(F)c12 (stereo in doubt) [compound 1145, (S)—N-(1-(5-cyanopyrazin-2-yl)ethyl)-2-(5,6-difluoro-4-methyl-2-oxo-1,2-dihydroquinolin-3-yl)acetamide] | 0.06 | 0.03 | 0.07 |  |  |  | 
C[C@@H](NC(=O)Cc1c(C2CC2)c2cc(F)ccc2[nH]c1=O)c1ccc(C#N)nn1 (single isomer, unassigned) [compound 2053] | 100.00 | 12.45 | 100.00 |  |  |  | 
Cc1nccc2[nH]c(=O)c(C(F)(F)C(=O)N[C@H](CO)c3ncc(C#N)cc3F)c(C)c12 (single isomer, unassigned) [compound 3522] |  |  |  | 1.10 | 0.28 | 2.90 | 
Cc1c(CC(=O)N[C@H](CO)c2ncc(F)cc2F)c(=O)[nH]c2ccnc(C#N)c12 [compound 261] |  |  |  | 100.00 | 26.68 | 100.00 | 
C[C@H](NC(=O)C1(c2cc3c(F)c(F)ccc3[nH]c2=O)CC1)c1ccc(C#N)cn1 (single isomer, unassigned) [compound 4810] | 1.90 | 100.00 | 100.00 |  |  |  | 
C[C@H](NC(=O)C1(c2cc3c(F)c(F)ccc3[nH]c2=O)CC1)c1cnc(C#N)cn1 (single isomer, unassigned) [compound 4830] | 0.46 | 1.34 | 100.00 |  |  |  | 
Cc1c(CC(=O)N[C@H]2COc3cc(C#N)cnc32)c(=O)[nH]c2ccc(F)cc12 [compound 1063] | 0.16 | 0.22 | 0.76 |  |  |  | 
Cc1c(CC(=O)N[C@@H](C)c2ccc(F)cc2F)c(=O)[nH]c2ccnc(Nc3ccccc3)c12 [compound 278] |  |  |  | 17.26 | 2.73 | 100.00 | 
C[C@H](NC(=O)[C@H](C)c1c(C(F)(F)F)c2cc(F)ccc2[nH]c1=O)c1ccc(F)cc1F (single isomer, unassigned) [compound 100] | 0.06 | 0.04 | 0.69 |  |  |  | 
C[C@H](NC(=O)Cc1cc2cc(C3CC3)ccc2[nH]c1=O)c1ccc(F)cc1F [compound 117] | 100.00 | 6.32 | 100.00 |  |  |  | 
Cc1c(CC(=O)N[C@H](CO)c2ccc(F)cc2F)c(=O)[nH]c2ccc(C#N)nc12 [compound 210] |  |  |  | 30.20 | 7.04 | 100.00 | 
